The values that follow come from US11992489B2, “Substituted tetrahydroquinoline compounds as indoleamine 2,3-dioxygenase inhibitors” (Merck Sharp & Dohme LLC, priority 2018, dated 2024).

Assay [1] deals with T1, IDO1 (Homo sapiens, UniProt P14902). As to the kind of experiment: IDO1 cellular assay in HeLa cells stimulated with IFNγ. It is filed as cell-based. The following applies: IFNγ 100 ng/mL, 300 uM L-tryptophan, about 48 hours, fluorescence readout, read-out: HeLa Cell Potency, IC50. The method, then:
Biological Assays IDO1 Cellular Assay in HeLa Cells Stimulated with IFNγ
HeLa cells were cultured in complete HeLa culture medium (90% EMEM, 10% heat-inactivated fetal bovine serum) and expanded to about 1×10^9 cells. The cells were then collected and frozen down at 1×10^7 cells/vial in 1 mL frozen medium (90% complete HeLa culture medium, 10% DMSO).
Compounds to be tested were serially diluted in ten 3-fold steps in DMSO starting from 10 mM DMSO stocks in Echo low volume plate(s). Compound dilutions or DMSO alone were then dispensed from the dilution plate(s) into Greiner black 384-well assay plate(s) (catalog #781086, 50 nL/well) using an Echo 550 acoustic liquid handler (Labcyte).
Frozen HeLa cells were thawed and transferred into HeLa assay medium (99% complete HeLa culture medium, 1% Pen/Strep) with 20 mL medium/vial of cells. The cells were spun down at 250 g in a table top centrifuge for 5 min and suspended in same volume of HeLa assay medium. The cells were then counted and adjusted to a density of 2×10^5 cells/mL in HeLa assay medium. Sterile L-tryptophan were added to the cells with final concentration of 300 uM L-tryptophan. A small aliquot (2 mL/plate) of HeLa cells were set aside and were not treated with IFNγ, to serve as the Max-E control.
HeLa cells with and without IFNγ were dispensed to the respective wells of 384-well assay plates containing the compounds. The plates were incubated for about 48 hours at a 37° C., 5% CO2 incubator. Afterwards, 12 μL of 0.5 M methyl isonipecotate in dimethyl sulfoxide were added into each well and the plates were sealed and incubated at 37° C. without CO2 overnight. The plates were centrifuged for 1 min at 200×g. The resulting fluorescence was measured in a Spectramax plate reader (Molecular Devices) with a 400 nm excitation filter and a 510 nm emission filter.
The fluorescence intensity of each well was corrected for the background observed in wells with non-IFNγ-treated cells and was expressed as a fraction of the intensity observed in wells of IFNγ-treated cells and DMSO only. Potencies were calculated by linear least squares fit to the four parameter logistic IC50 equation.

In assay [2] the target is T1, IDO1. Kind of assay: IDO1 human whole blood assay. Type of assay: cell-based. Set-up: Human whole blood was drawn in sodium heparin coated tubes from healthy internal donors; from tissue; host or cells: human whole blood from healthy donors, stimulated with LPS/IFNγ. The following applies: stimulant 100 ng/mL final, 18 h, kynurenine by LC/MS/MS, read-out: Human Whole Blood Potency, IC50. On the procedure: IDO1 Human Whole Blood Assay
Compounds to be tested were serially diluted in ten 3-fold steps in DMSO starting from 10 mM. 3 μL of compound dilutions or DMSO alone were then dispensed from the dilution plate into a polypropylene 96-well assay plate containing 97 μL of RPMI medium using an Echo 555 acoustic liquid handler (Labcyte). Lipopolysaccharide (LPS) induced IFNγ was prepared in RPMI medium to a 10× of final conc. (1000 ng/mL), final concentration is 100 ng/mL.
Human whole blood was drawn in sodium heparin coated tubes from healthy internal donors. 240 μL of blood was transferred to each of the wells of a v-bottom 96 well plate. 30 μL of compound was transferred from intermediate dilution plate, and incubated for 15 min. 30 μL from stimulants was then transferred to blood and mixed thoroughly. Plate was covered with breathable membrane and incubated at 37° C. for overnight (18 h).
On day 2, isotope labeled standard solutions of kunurenine and tryptophan was made in water at 10× concentration and 30 μL was added to the blood at 3 μM final concentration. The assay plates were centrifuged at 300×G for 10 min with no brake to separate plasma from red blood cells. 60 μL of plasma samples was removed without disturbing red blood cells. Plasma was diluted with RPMI in 1:1 ratio and proteins were precipitated out with two volumes of Acetonitrile. The plates were centrifuged at 4000×G for 60 min. 20 μL of supernatant was carefully transferred to a 384 well plate containing 40 μL of 0.1% formic acid in water and analyzed by LC/MS/MS.
LC/MS/MS analyses were performed using Thermo Fisher's LX4-TSQ Quantum Ultra system. This system consists of four Agilent binary high-performance liquid chromatography (HPLC) pumps and a TSQ Quantum Ultra triple quadrupole MS/MS instrument. For each sample, 5 μL were injected onto an Atlantis T3 column (2.1 mm×150 mm, 3 μm particle size) from Waters. The mobile phase gradient pumped at 0.8 mL/min was used to elute the analytes from the column at 25° C. […] Compounds were titrated and IC50's were calculated by 4 parameter sigmoidal curve fitting formula.

As a reminder, the IC50 is the concentration needed to halve the response being measured.

T1 sequence (P14902 whole entry): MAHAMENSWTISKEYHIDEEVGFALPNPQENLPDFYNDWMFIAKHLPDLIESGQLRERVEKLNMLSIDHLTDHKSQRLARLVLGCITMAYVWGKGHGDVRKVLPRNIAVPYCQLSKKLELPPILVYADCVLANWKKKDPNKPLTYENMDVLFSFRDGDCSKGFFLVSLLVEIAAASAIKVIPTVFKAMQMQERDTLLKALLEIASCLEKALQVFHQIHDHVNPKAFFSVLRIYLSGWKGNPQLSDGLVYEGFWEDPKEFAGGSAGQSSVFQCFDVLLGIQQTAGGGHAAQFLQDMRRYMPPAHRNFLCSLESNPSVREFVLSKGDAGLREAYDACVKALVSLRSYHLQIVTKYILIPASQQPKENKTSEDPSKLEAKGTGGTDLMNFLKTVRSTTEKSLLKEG

Take `O=C(NC1(c2ccc3c(n2)CCC[C@H]3Oc2cccc(Cl)c2)CC1)c1ccc(F)cc1` (single isomer, unassigned) [Example 2]: the values for the 50% inhibitory concentration (IC50) in assay [1] and in assay [2] were 2.98 nM and 864 nM, respectively.

For the compound `O=C(NC1(c2ccc3c(n2)CCC[C@@H]3Oc2cccc(Cl)c2)CC1)c1ccc(F)cc1` (single isomer, unassigned) [Example 3], the figures for the IC50 in assay [1] and in assay [2] were 6.99 nM and more than 1000 nM, respectively.

As to `O=C(NC1(c2ccc3c(n2)CCCC3Oc2cccc(Cl)c2)CC1)c1ccc(F)cc1` (stereo not drawn) [Example 1, N-(1-(5-(3-chlorophenoxy)-5,6,7,8-tetrahydroquinolin-2-yl)cyclopropyl)-4-fluorobenzamide], the results for the IC50 in assay [1] and in assay [2] were 2.68 nM and 601 nM, respectively.
